From paper PMC7876453, “Targeting Indoleamine 2,3-Dioxygenase in Cancer Models Using the Novel Small Molecule Inhibitor NTRC 3883-0” (Frontiers in Immunology, 2021)

How the values were obtained:
A375 + IFNγ (hIDO1) = biological target: T1, A375 + IFNγ (hIDO1) (Homo sapiens, UniProt P14902); assay: cell-based assay, Trp-catabolizing activity in IFNγ-stimulated A375 cells; conditions: IFNγ-stimulated A375 human melanoma cells
T1 construct: host or cells: A375 cells stimulated with IFNγ

human IDO1 = biological target: T2, human IDO1 (Homo sapiens, UniProt P14902); assay: human IDO1 biochemical assay (NFK GreenScreen); conditions: human IDO1 biochemical assay
T2 construct: Full-length recombinant human and mouse IDO1 were expressed in Escherichia coli with a hexahistidine tag at the N-terminus; hexahistidine (N); made in house; host or cells: Escherichia coli
T2 sequence (P14902 whole entry): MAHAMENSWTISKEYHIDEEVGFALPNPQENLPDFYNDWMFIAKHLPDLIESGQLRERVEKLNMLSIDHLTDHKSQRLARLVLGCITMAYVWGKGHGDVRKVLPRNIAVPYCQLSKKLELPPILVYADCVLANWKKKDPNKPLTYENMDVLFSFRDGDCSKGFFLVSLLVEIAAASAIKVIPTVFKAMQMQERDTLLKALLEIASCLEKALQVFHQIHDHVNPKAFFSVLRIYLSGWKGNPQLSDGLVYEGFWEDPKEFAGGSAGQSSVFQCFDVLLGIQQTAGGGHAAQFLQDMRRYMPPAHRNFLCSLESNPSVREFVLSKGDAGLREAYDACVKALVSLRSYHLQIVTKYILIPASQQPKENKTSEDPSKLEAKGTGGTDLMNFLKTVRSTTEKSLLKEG

TDO = conditions: cited from earlier work
IDO1 = conditions: cited from earlier work

T1 sequence (P14902 whole entry): as above

| IC50 (A375 + IFNγ (hIDO1)) [µM] | IC50 (human IDO1) [µM] | Structure (SMILES) | K M,Trp of TDO (TDO) [µM] | K M,Trp of IDO1 (IDO1) [µM] |
| --- | --- | --- | --- | --- |
| 4.6 | 0.784 | O=C1CN(C(=O)c2ccccc2Cl)C(c2cccc(Br)c2)N1O (stereo not shown) [Compound 3f] |  |  |
| > 31.6 | 17.9 | N#Cc1cccc(C2N(O)C(=O)CN2C(=O)c2ccccc2)c1 (stereo not shown) [Compound 2f] |  |  |
| > 31.6 | > 31.6 | O=C1CN(C(=O)c2ccccc2)C(c2ccc(Br)cc2)N1O (stereo not shown) [Compound 2d] |  |  |
| 21.7 | 4.02 | Cc1ccccc1C(=O)N1CC(=O)N(O)C1c1cccc(Br)c1 (stereo not shown) [Compound 3d] |  |  |
| > 31.6 | > 31.6 | O=C1CN(C(=O)c2ccccc2)C(C2CCCCC2)N1O (stereo not shown) [Compound 2e] |  |  |
| 5.22 | 2.38 | O=C1CN(C(=O)c2ccccc2)C(c2cccc(Cl)c2)N1O (stereo not shown) [Compound 2b] |  |  |
| 5.24 | 0.91 | O=C1CN(C(=O)c2cccc(F)c2)C(c2cccc(Br)c2)N1O (stereo not shown) [Compound 3b] |  |  |
| 11 | 2.17 | O=C1CN(C(=O)c2ccc(F)cc2)C(c2cccc(Br)c2)N1O (stereo not shown) [Compound 3a] |  |  |
|  |  | N[C@@H](Cc1c[nH]c2ccccc12)C(=O)O [Trp, L-tryptophan] | 190 | 6 |
| > 31.6 | > 31.6 | COc1ccccc1C(=O)N1CC(=O)N(O)C1c1cccc(Br)c1 (stereo not shown) [Compound 3e] |  |  |
| > 31.6 | > 31.6 | O=C1CN(C(=O)c2ccccc2)C(c2ccccc2)N1O (stereo not shown) [Compound 2a] |  |  |
